Source: patent publication US8906933B2, “Dihydropyrimidin-2(1H)-one compounds as neurokinin-3 receptor antagonists” (N30 Pharmaceuticals, Inc., priority 2010, dated 2014)

molecular target: human NK3 receptor (Homo sapiens (Human), UniProt P29371); experiment: Human NK3 receptor binding assay at 1 uM; conditions: 1 μM test compound; [3H]SR142801, CHO cell membranes; read-out: percent inhibition at 1 μM
Description: Antagonist activity was evaluated at a concentration of 1 μM for a representative subset of test compounds, and the results were expressed as the percent inhibition at that concentration.
Each test compound was evaluated at a single concentration of 1 μM. […] The results are expressed as a percent of control specific binding ((measured specific binding/control specific binding)×100) obtained in the presence of the test compounds.

Chain of human NK3 receptor (P29371 whole entry): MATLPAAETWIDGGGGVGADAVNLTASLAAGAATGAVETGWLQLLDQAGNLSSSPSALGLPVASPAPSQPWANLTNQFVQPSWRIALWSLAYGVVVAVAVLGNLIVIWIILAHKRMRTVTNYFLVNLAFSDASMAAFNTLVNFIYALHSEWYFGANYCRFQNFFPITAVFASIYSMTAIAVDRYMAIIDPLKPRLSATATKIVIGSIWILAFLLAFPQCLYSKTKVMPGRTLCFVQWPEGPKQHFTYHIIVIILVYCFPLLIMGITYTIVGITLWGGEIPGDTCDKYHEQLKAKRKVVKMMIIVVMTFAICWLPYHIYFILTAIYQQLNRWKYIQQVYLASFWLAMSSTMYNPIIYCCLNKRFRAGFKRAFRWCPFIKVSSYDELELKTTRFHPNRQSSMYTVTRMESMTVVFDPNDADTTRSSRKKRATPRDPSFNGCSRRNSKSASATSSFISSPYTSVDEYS

Inhibition at 1 µM, > 50%:
N#Cc1cccc(C2NC(=O)NC(c3ccccc3)=C2c2ccccc2)c1O (stereo not drawn) [2-hydroxy-3-(2-oxo-5,6-diphenyl-1,2,3,4-tetrahydropyrimidin-4-yl)benzonitrile], CCOc1cc(C2NC(=O)NC(c3ccccc3)=C2c2ccccc2)cc(Br)c1O (stereo not drawn) [4-(3-bromo-5-ethoxy-4-hydroxyphenyl)-5,6-diphenyl-3,4-dihydropyrimidin-2(1H)-one], CCOc1cc(C2NC(=O)NC(c3ccccc3)=C2c2cccc(CC)c2)cc([N+](=O)[O-])c1O (stereo not drawn) [4-(3-ethoxy-4-hydroxy-5-nitrophenyl)-5-(3-ethylphenyl)-6-phenyl-3,4-dihydropyrimidin-2(1H)-one], CCOc1cc(C2NC(=O)NC(c3ccccc3)=C2c2cccc(F)c2)cc([N+](=O)[O-])c1O (stereo not drawn) [4-(3-ethoxy-4-hydroxy-5-nitrophenyl)-5-(3-fluorophenyl)-6-phenyl-3,4-dihydropyrimidin-2(1H)-one], CCOc1cc(C2NC(=O)NC(c3ccc(C(F)(F)F)cc3)=C2c2ccccc2)cc([N+](=O)[O-])c1O (stereo not drawn) [4-(3-ethoxy-4-hydroxy-5-nitrophenyl)-5-phenyl-6-(4-(trifluoromethyl)phenyl)-3,4-dihydropyrimidin-2(1H)-one], CCOc1cc(C2NC(=O)NC(c3ccccc3F)=C2c2ccccc2)cc([N+](=O)[O-])c1O (stereo not drawn) [4-(3-ethoxy-4-hydroxy-5-nitrophenyl)-6-(2-fluorophenyl)-5-phenyl-3,4-dihydropyrimidin-2(1H)-one], CCOc1cc(C2NC(=O)NC(c3ccc(F)cc3)=C2c2ccccc2)cc([N+](=O)[O-])c1O (stereo not drawn) [4-(3-ethoxy-4-hydroxy-5-nitrophenyl)-6-(4-fluorophenyl)-5-phenyl-3,4-dihydropyrimidin-2(1H)-one], CCOc1cc(C2NC(=O)NC(c3ccccc3)=C2c2ccccc2C)cc([N+](=O)[O-])c1O (stereo not drawn) [4-(3-ethoxy-4-hydroxy-5-nitrophenyl)-6-phenyl-5-o-tolyl-3,4-dihydropyrimidin-2(1H)-one], CCOc1cc(C2NC(=O)NC(c3ccccc3)=C2c2ccc(C)cc2)cc([N+](=O)[O-])c1O (stereo not drawn) [4-(3-ethoxy-4-hydroxy-5-nitrophenyl)-6-phenyl-5-p-tolyl-3,4-dihydropyrimidin-2(1H)-one], CCOc1cc(C2NC(=O)NC(c3ccccc3)=C2c2ccccc2)cc(F)c1O (stereo not drawn) [4-(3-ethoxy-5-fluoro-4-hydroxyphenyl)-5,6-diphenyl-3,4-dihydropyrimidin-2(1H)-one], O=C1NC(c2ccccc2)=C(c2ccccc2)C(c2ccc(O)c([N+](=O)[O-])c2)N1 (stereo not drawn) [4-(4-hydroxy-3-nitrophenyl)-5,6-diphenyl-3,4-dihydropyrimidin-2(1H)-one], CCOc1cc(C2NC(=O)NC(c3ccccc3)=C2c2ccccc2Cl)cc([N+](=O)[O-])c1O (stereo not drawn) [5-(2-chlorophenyl)-4-(3-ethoxy-4-hydroxy-5-nitrophenyl)-6-phenyl-3,4-dihydropyrimidin-2(1H)-one], CCOc1cc(C2NC(=O)NC(c3ccccc3)=C2c2ccc(F)c(F)c2)cc([N+](=O)[O-])c1O (stereo not drawn) [5-(3,4-difluorophenyl)-4-(3-ethoxy-4-hydroxy-5-nitrophenyl)-6-phenyl-3,4-dihydropyrimidin-2(1H)-one], CCOc1cc(C2NC(=O)NC(c3ccccc3)=C2c2ccc(Cl)cc2)cc([N+](=O)[O-])c1O (stereo not drawn) [5-(4-chlorophenyl)-4-(3-ethoxy-4-hydroxy-5-nitrophenyl)-6-phenyl-3,4-dihydropyrimidin-2(1H)-one], CCOc1cc(C2NC(=O)NC(c3ccc(F)c(F)c3)=C2c2ccccc2)cc([N+](=O)[O-])c1O (stereo not drawn) [6-(3,4-difluorophenyl)-4-(3-ethoxy-4-hydroxy-5-nitrophenyl)-5-phenyl-3,4-dihydropyrimidin-2(1H)-one]
